The CheMixHub viscosity set

Experiment: xn = mol fraction of the nth substance listed

CCCC(C)O (centres undefined) + CC1CCCCC1
viscosity [mPa·s], 100 kPa
Conditions	x2 = 0.081	x2 = 0.16	x2 = 0.2399	x2 = 0.3501	x2 = 0.4399	x2 = 0.56	x2 = 0.6499	x2 = 0.7401	x2 = 0.8499	x2 = 0.94
293.15 K	3.09	2.46	1.96	1.48	1.23	1.05	0.98	0.93	0.88	0.8
298.15 K	2.56	2.05	1.66	1.26	1.06	0.92	0.86	0.82	0.79	0.73
303.15 K	2.15	1.74	1.43	1.11	0.95	0.83	0.79	0.77	0.73	0.68
308.15 K	1.83	1.5	1.24	0.99	0.86	0.75	0.71	0.69	0.67	0.63
313.15 K	1.57	1.31	1.1	0.89	0.78	0.7	0.67	0.65	0.63	0.59
318.15 K	1.35	1.13	0.96	0.8	0.72	0.66	0.64	0.62	0.6	0.57
323.15 K	1.17	1	0.86	0.72	0.66	0.61	0.58	0.57	0.56	0.54

CCCCNCCCC + CNC(C)=O
308.15 K, 101 kPa
Conditions	viscosity [mPa·s]
x1 = 0.0121	3.267
x2 = 0.0611	0.7366
x2 = 0.2864	1.116
x2 = 0.4546	1.522
x2 = 0.5799	1.89
x2 = 0.6904	2.25
x2 = 0.7866	2.584
x2 = 0.8542	2.828
x2 = 0.9262	3.06

CCCCNCCCC + CCC(C)O
viscosity [mPa·s]
Conditions	298.15 K	303.15 K	308.15 K	318.15 K
101 kPa, x1 = 0.008423	–	2.446	–	–
101 kPa, x1 = 0.01776	–	2.42	–	–
101 kPa, x1 = 0.02719	–	2.398	–	–
101 kPa, x1 = 0.03174	–	2.389	–	–
101 kPa, x1 = 0.04204	–	2.369	–	–
101 kPa, x1 = 0.0502	–	2.353	–	–
101 kPa, x1 = 0.06011	–	2.332	–	–
101 kPa, x1 = 0.06621	–	2.32	–	–
101 kPa, x1 = 0.07608	–	2.299	–	–
101.33 kPa, x1 = 0.0594	2.662	–	1.888	1.409
101.33 kPa, x1 = 0.0839	2.525	–	1.79	1.328
101.33 kPa, x1 = 0.1282	2.305	–	1.657	1.24
101.33 kPa, x1 = 0.1858	2.06	–	1.516	1.147
101.33 kPa, x1 = 0.2618	1.787	–	1.344	1.054
101.33 kPa, x1 = 0.3612	1.511	–	1.181	0.948
101.33 kPa, x1 = 0.4306	1.373	–	1.089	0.886
101.33 kPa, x1 = 0.5042	1.246	–	1.012	0.827
101.33 kPa, x1 = 0.5658	1.16	–	0.952	0.784
101.33 kPa, x1 = 0.6215	1.095	–	0.898	0.753
101.33 kPa, x1 = 0.6856	1.031	–	0.855	0.712
101.33 kPa, x1 = 0.7458	0.986	–	0.818	0.696
101.33 kPa, x1 = 0.794	0.959	–	0.803	0.684
101.33 kPa, x1 = 0.8584	0.905	–	0.76	0.681
101.33 kPa, x1 = 0.9138	0.859	–	0.733	0.661

CCCCNCCCC + c1ccccc1
viscosity [mPa·s], 101 kPa
Conditions	x1 = 0.01077	x1 = 0.02009	x1 = 0.02993	x1 = 0.03893	x1 = 0.04865	x1 = 0.05929	x1 = 0.06883	x1 = 0.07963	x1 = 0.08917
303.15 K	0.5674	0.5699	0.5746	0.5771	0.5809	0.584	0.5864	0.5907	0.5931
313.15 K	0.4959	0.4998	0.503	0.5067	0.511	0.5134	0.515	0.5177	0.5198

COCCO + CCOC(C)=O
viscosity [mPa·s], 101 kPa
Conditions	x1 = 0.0974	x1 = 0.1945	x1 = 0.2964	x1 = 0.3997	x1 = 0.4973	x1 = 0.5922	x1 = 0.6956	x1 = 0.8008	x1 = 0.9012
298.15 K	0.47	0.514	0.572	0.644	0.736	0.838	0.992	1.19	1.421
303.15 K	0.444	0.484	0.536	0.601	0.683	0.775	0.912	1.086	1.286
308.15 K	0.42	0.456	0.514	0.564	0.636	0.719	0.84	0.994	1.173

CCCC(=O)O + ClC(Cl)(Cl)Cl
298.15 K, 101 kPa
Conditions	viscosity [mPa·s]
x1 = 0.08	0.911
x1 = 0.16	0.925
x1 = 0.24	0.945
x1 = 0.3	0.966
x1 = 0.54	1.079
x1 = 0.64	1.142
x1 = 0.72	1.201
x1 = 0.87	1.331

CC(=O)OCC(C)C + Cc1ccccc1C
viscosity [mPa·s], 101 kPa
Conditions	x1 = 0.0918	x1 = 0.1798	x1 = 0.2716	x1 = 0.3504	x1 = 0.4528	x1 = 0.5735	x1 = 0.6718	x1 = 0.7786	x1 = 0.8691	x1 = 0.9514
303.15 K	0.694	0.688	0.681	0.675	0.667	0.659	0.653	0.648	0.644	0.641
313.15 K	0.613	0.606	0.6	0.595	0.59	0.585	0.582	0.58	0.578	0.58

CC(=O)OC(C)C + Cc1ccccc1C
viscosity [mPa·s], 101 kPa
Conditions	x1 = 0.1037	x1 = 0.2009	x1 = 0.3016	x1 = 0.4027	x1 = 0.5048	x1 = 0.6019	x1 = 0.7013	x1 = 0.8041	x1 = 0.9437
303.15 K	0.669	0.645	0.62	0.595	0.571	0.55	0.527	0.504	0.472
313.15 K	0.596	0.573	0.552	0.53	0.509	0.489	0.47	0.45	0.424
